Laboratory results from publication PMC4937660, “In vitro evaluation of the effects of 4-aminopyridine on cytochrome P450 enzymes” (Journal of Drug Assessment, 2013).

Test system: T1, CYP3A4/5
T1 construct: native enzymes in pooled human liver microsomes (16 samples, XenoTech); read out by testosterone 6beta-hydroxylation and midazolam 1'-hydroxylation
Test: testosterone 6beta-hydroxylation in human liver microsomes, HPLC-MS/MS
Format: biochemical
Conditions: direct inhibition, no pre-incubation; testosterone 100 μM (about Km); NADPH-generating system, pH 7.4, 37 °C; read-out: Direct inhibition; 0-min Pre-incubation / IC50
From the text: testosterone 6beta-hydroxylation in human liver microsomes, HPLC-MS/MS on CYP3A4/5

Compound: Nc1ccncc1 [4-AP]
- IC50: > 30 µM
